From patent publication US20230310428A1, “EGFR INHIBITOR AND PREPARATION METHOD AND USE THEREOF” (HONGYUN BIOTECH CO., LTD., priority 2020, published 2023)
Where two headings read alike, the source gives them in different places.

Experiments:
Assay in all cases: Growth inhibitory activity of compounds on BaF3 cell lines stably transfected with kinase (MTS, 48 h)
Type in all cases: cell-based
[1] = target: T1, various mutants of kinase EGFR (BaF3 cell lines stably transfected with kinase) (Homo sapiens, UniProt P00533, T790M/C797S, form not given)
T1 construct: other: BaF3 cells stably transfected with EGFR Δ19Del/T790M/C797S; MTS, 48; other: BaF3 cell line stably transfected with EGFR Δ19Del/T790M/C7
T1 sequence (P00533 with tags, fused parts or gaps DEL746-750/T790M/C797S, form open): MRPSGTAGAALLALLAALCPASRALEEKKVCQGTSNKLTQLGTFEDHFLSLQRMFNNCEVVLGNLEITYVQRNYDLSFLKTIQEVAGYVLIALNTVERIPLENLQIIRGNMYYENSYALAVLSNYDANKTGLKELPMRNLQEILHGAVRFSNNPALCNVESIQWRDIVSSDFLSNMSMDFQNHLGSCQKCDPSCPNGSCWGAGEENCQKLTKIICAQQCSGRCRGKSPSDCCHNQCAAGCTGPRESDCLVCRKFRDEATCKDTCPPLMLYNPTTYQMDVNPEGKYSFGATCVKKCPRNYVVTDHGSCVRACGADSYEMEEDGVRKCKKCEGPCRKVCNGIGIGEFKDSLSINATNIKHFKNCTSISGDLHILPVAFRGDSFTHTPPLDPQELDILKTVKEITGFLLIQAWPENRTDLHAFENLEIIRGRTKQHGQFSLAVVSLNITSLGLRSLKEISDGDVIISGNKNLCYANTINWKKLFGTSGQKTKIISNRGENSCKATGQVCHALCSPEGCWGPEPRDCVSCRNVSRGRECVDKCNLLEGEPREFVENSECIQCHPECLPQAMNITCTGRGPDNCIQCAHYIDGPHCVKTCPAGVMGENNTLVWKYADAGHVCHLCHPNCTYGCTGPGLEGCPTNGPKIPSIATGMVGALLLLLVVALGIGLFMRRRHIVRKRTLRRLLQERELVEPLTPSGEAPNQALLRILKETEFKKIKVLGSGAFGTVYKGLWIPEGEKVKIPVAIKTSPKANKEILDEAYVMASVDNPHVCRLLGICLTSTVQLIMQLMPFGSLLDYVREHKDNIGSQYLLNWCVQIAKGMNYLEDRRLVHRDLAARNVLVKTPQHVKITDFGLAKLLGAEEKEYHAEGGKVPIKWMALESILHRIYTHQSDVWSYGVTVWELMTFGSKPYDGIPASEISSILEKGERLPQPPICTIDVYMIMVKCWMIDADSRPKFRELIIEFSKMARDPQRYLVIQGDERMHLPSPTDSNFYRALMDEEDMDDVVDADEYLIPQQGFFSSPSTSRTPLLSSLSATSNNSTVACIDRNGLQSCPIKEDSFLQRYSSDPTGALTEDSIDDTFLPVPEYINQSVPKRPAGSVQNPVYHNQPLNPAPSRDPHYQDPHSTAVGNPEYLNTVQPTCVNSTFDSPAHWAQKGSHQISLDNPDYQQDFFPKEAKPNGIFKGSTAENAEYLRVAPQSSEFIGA
In short: (§1)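 BaF3 cells stably transfected with EGFR mutants were exposed for 48 h at 37°C to 8 compound concentrations (top 10 µM, 1/3 dilutions, 0.1% DMSO). Growth was read by MTS at 490 nm after 1-4 h, in duplicate; IC50 was derived from inhibition rates versus DMSO control.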

[2] = target: T2, various mutants of kinase EGFR (BaF3 cell lines stably transfected with kinase) (Homo sapiens, UniProt P00533, T790M, form not given)
T2 construct: other: BaF3 cells stably transfected with EGFR Δ19Del/T790M; MTS, 48 h; other: BaF3 cell line stably transfected with EGFR Δ19Del/T790M; MTS, 48
T2 sequence (P00533 with tags, fused parts or gaps DEL746-750/T790M, form open): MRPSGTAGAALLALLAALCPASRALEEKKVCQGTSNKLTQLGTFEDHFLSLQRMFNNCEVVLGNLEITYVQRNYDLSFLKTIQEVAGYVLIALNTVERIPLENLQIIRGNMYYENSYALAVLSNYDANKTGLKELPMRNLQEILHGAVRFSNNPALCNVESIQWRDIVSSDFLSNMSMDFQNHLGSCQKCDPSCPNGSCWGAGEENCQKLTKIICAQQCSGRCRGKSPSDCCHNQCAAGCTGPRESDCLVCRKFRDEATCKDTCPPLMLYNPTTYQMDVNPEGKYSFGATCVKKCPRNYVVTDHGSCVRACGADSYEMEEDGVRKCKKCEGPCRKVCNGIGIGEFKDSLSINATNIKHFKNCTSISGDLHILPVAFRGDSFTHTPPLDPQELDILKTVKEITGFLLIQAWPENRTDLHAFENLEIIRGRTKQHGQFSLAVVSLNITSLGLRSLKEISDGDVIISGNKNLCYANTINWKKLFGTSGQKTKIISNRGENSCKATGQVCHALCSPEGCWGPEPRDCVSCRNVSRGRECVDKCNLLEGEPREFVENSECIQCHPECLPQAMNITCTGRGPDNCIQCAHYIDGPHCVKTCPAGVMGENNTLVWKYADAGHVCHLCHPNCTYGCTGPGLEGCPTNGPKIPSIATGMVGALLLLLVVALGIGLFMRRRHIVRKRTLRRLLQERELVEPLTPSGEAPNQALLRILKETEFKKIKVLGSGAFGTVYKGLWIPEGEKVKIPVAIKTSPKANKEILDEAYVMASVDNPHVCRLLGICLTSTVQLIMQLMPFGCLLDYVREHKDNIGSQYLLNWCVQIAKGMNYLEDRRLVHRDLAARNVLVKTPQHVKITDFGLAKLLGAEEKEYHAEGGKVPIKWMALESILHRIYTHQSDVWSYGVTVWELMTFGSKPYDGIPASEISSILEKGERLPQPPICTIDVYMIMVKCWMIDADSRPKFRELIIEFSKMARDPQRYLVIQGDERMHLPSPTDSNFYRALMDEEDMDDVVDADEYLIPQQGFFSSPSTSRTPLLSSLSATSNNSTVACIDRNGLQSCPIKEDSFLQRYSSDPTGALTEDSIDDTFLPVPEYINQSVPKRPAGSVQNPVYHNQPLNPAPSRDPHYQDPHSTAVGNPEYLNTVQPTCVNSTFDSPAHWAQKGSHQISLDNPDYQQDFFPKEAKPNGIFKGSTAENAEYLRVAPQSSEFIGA
In short: as §1

[3] = target: T3, various mutants of kinase EGFR (BaF3 cell lines stably transfected with kinase) (Homo sapiens, UniProt P00533, L858R)
T3 construct: expressed in transfected cells; host or cells: BaF3
In short: as §1

[4] = target: T4, various mutants of kinase EGFR (BaF3 cell lines stably transfected with kinase) (Homo sapiens, UniProt P00533, C797S/L858R/T790M)
T4 construct: expressed in transfected cells; host or cells: BaF3
In short: as §1

[5] = target: T5, various mutants of kinase EGFR (BaF3 cell lines stably transfected with kinase) (Homo sapiens, UniProt P00533, L858R/T790M)
T5 construct: expressed in transfected cells; host or cells: BaF3
T5 sequence (P00533 25-1210 T790M/L858R): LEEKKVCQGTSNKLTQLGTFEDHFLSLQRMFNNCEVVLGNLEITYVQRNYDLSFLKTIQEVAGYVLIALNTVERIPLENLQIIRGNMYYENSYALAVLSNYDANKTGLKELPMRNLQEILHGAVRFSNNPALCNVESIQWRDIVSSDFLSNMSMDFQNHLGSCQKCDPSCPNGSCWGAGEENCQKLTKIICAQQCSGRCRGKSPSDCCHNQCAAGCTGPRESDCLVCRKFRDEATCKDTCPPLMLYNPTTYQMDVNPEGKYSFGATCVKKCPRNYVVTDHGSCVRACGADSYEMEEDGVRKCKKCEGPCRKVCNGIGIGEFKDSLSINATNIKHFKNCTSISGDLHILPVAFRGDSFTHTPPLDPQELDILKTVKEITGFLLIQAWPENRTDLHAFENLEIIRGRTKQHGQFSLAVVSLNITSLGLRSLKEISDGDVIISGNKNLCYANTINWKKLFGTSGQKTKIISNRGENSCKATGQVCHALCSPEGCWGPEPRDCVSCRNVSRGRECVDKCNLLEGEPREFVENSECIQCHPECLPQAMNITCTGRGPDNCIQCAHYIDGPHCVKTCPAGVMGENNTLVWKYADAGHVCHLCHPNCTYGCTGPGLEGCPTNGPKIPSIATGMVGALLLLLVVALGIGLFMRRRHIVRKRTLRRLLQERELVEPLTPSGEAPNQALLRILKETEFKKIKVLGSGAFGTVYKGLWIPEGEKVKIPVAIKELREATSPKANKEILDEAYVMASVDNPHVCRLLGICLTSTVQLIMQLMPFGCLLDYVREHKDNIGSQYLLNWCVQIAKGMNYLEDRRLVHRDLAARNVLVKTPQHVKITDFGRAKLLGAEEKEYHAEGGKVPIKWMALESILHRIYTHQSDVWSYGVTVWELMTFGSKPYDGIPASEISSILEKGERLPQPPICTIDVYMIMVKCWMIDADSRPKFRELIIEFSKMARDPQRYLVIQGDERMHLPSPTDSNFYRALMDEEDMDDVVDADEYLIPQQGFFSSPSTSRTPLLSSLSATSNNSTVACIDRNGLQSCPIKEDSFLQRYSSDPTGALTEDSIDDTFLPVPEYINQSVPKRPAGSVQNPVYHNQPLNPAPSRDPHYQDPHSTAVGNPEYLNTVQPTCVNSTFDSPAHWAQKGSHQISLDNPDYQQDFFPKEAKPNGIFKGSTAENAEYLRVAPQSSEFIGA
In short: as §1

[6] = target: T6, various mutants of kinase EGFR (BaF3 cell lines stably transfected with kinase) (Homo sapiens, UniProt P00533)
T6 construct: other: BaF3 cells stably transfected with EGFR Δ19Del; MTS, 48 h; other: BaF3 cell line stably transfected with EGFR Δ19Del
T6 sequence (P00533 with tags, fused parts or gaps DEL746-750): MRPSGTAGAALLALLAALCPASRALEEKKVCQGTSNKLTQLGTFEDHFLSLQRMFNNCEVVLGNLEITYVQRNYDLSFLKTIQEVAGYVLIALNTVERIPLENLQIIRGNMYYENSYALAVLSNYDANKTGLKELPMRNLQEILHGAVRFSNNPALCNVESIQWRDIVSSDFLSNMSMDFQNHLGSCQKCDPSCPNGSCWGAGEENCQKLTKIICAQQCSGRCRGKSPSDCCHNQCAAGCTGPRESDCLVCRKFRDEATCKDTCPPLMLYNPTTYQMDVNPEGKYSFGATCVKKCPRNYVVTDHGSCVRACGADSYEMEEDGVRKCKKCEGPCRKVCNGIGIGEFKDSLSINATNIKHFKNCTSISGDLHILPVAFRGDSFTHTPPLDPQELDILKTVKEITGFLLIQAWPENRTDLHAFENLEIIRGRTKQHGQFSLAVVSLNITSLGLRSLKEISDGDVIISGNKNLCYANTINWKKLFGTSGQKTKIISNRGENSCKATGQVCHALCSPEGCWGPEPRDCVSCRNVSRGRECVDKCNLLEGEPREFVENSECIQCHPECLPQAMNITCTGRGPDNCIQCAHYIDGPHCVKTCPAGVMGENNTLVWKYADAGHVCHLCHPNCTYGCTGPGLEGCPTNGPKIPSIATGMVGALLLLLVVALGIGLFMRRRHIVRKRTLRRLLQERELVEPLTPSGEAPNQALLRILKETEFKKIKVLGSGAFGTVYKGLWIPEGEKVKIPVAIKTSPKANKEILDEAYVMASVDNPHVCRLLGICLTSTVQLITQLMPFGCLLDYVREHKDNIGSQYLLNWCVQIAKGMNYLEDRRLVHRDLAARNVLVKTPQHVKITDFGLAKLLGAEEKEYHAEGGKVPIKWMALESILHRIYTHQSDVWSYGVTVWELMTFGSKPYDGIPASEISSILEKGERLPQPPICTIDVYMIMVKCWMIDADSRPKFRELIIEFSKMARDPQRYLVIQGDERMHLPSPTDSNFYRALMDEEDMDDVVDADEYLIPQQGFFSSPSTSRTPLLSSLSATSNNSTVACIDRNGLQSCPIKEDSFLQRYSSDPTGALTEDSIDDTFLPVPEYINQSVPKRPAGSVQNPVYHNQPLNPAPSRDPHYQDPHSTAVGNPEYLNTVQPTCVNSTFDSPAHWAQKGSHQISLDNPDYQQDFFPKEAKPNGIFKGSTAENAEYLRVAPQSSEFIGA
In short: as §1

[7] = BaF3 cells stably transfected with EGFR Δ19Del/T790M/C797S, read-out: IC50, growth inhibition, Δ19Del/T790M/C797S
[8] = BaF3 cells stably transfected with EGFR Δ19Del/T790M, read-out: IC50, growth inhibition, Δ19Del/T790M
[9] = BaF3 cells stably transfected with EGFR L858R, read-out: IC50, growth inhibition, L858R
[10] = BaF3 cells stably transfected with EGFR L858R/T790M/C797S, read-out: IC50, growth inhibition, L858R/T790M/C797S
[11] = BaF3 cells stably transfected with EGFR L858R/T790M, read-out: IC50, growth inhibition, L858R/T790M
[12] = BaF3 cells stably transfected with EGFR Δ19Del, read-out: IC50, growth inhibition, Δ19Del
[13] = BaF3 cell line stably transfected with EGFR Δ19Del/T790M/C797S, read-out: Δ19Del/T790M/ C797S growth inhibitory activity IC50
[14] = BaF3 cell line stably transfected with EGFR Δ19Del/T790M, read-out: Δ19Del/ T790M growth inhibitory activity IC50
[15] = BaF3 cell line stably transfected with EGFR L858R, read-out: L858R growth inhibitory activity IC50
[16] = BaF3 cell line stably transfected with EGFR L858R/T790M/C797S, read-out: L858R/T790M/ C797S growth inhibitory activity IC50
[17] = BaF3 cell line stably transfected with EGFR L858R/T790M, read-out: L858R/ T790M growth inhibitory activity IC50
[18] = BaF3 cell line stably transfected with EGFR Δ19Del, read-out: Δ19Del growth inhibitory activity IC50

IC50 [1, 7] [nM]	IC50 [2, 8] [nM]	IC50 [3, 9] [nM]	IC50 [4, 10] [nM]	IC50 [5, 11] [nM]	IC50 [6, 12] [nM]	IC50 [1, 13] [nM]	IC50 [2, 14] [nM]	IC50 [3, 15] [nM]	IC50 [4, 16] [nM]	IC50 [5, 17] [nM]	IC50 [6, 18] [nM]	SMILES
500 to 2500	500 to 2500	50 to 500	500 to 2500	500 to 2500	500 to 2500	–	–	–	–	–	–	COc1cc(N2CCC(N3CCN(C)CC3)CC2)ccc1Nc1ncc(C#N)c(Nc2ccc3nccnc3c2N(C)S(C)(=O)=O)n1 [Compound I-27]
–	–	–	–	–	–	50 to 500	500 to 2500	500 to 2500	50 to 500	50 to 500	500 to 2500	CCc1cc(Nc2nc(Nc3ccc4nccnc4c3N(C)S(C)(=O)=O)c3sccc3n2)c(OC)nc1N1CCC(N2CCN(C)CC2)CC1 [II-1-6]
–	–	–	–	–	–	500 to 2500	500 to 2500	500 to 2500	500 to 2500	500 to 2500	500 to 2500	COc1nc(N2CCC(N3CCN(C)CC3)CC2)c(C)cc1Nc1nc(Nc2ccc3nccnc3c2N(C)S(C)(=O)=O)c2[nH]ccc2n1 [II-1-28]
–	–	–	–	–	–	≤ 50	≤ 50	≤ 50	≤ 50	≤ 50	≤ 50	CCc1cnc(Nc2cc(CC)c(N3CCC(N4CCN(C)CC4)CC3)nc2OC)nc1Nc1ccc2nccnc2c1N(C)S(C)(=O)=O [Compound I-320]
–	–	–	–	–	–	≤ 50	≤ 50	50 to 500	≤ 50	≤ 50	50 to 500	CCc1cc(Nc2ncc(C)c(Nc3ccc4nccnc4c3N(C)S(C)(=O)=O)n2)c(OC(F)(F)F)cc1N1CCC(N2CCN(C)CC2)CC1 [Compound I-314]
–	–	–	–	–	–	500 to 2500	50 to 500	500 to 2500	500 to 2500	500 to 2500	500 to 2500	COc1cc(N2CCC(N3CCN(C)CC3)CC2)c(Cc2ccccc2)cc1Nc1nc(Nc2ccc3nccnc3c2N(C)S(C)(=O)=O)c2sccc2n1 [II-1-11]
≤ 50	≤ 50	≤ 50	≤ 50	≤ 50	≤ 50	–	–	–	–	–	–	CCc1cc(Nc2ncc(Cl)c(Nc3ccc4nccnc4c3N(C3CC3)S(C)(=O)=O)n2)c(OC)cc1N1CCN(C)CC1 [Compound I-245]
–	–	–	–	–	–	≤ 50	≤ 50	≤ 50	≤ 50	≤ 50	≤ 50	CN1CCN(C2CCN(c3ccc(Nc4ncc(Br)c(Nc5ccc6nccnc6c5NS(C)(=O)=O)n4)c(F)c3F)CC2)CC1 [Compound I-359]
–	–	–	–	–	–	50 to 500	50 to 500	50 to 500	50 to 500	50 to 500	50 to 500	CCc1cc(Nc2ncc(CC)c(Nc3ccc4nccnc4c3N(C)S(C)(=O)=O)n2)c(OC)cc1C(=O)N1CCC(N2CCN(C)CC2)CC1 [Compound I-350]
–	–	–	–	–	–	500 to 2500	50 to 500	50 to 500	50 to 500	50 to 500	50 to 500	CCOc1cnc(Nc2cc(C)c(N3CCC(N4CCN(C)CC4)CC3)cc2OC)nc1Nc1ccc2nccnc2c1N(C)S(C)(=O)=O [Compound I-336]
≤ 50	≤ 50	50 to 500	50 to 500	50 to 500	50 to 500	–	–	–	–	–	–	CCc1cc(Nc2ncc(Cl)c(Nc3ccc4nccnc4c3N(C)S(=O)(=O)C(C)C)n2)c(OC)nc1N1CCC(N2CCN(C)CC2)CC1 [Compound I-253]
≤ 50	≤ 50	≤ 50	50 to 500	50 to 500	50 to 500	–	–	–	–	–	–	CCc1cc(Nc2ncc(F)c(Nc3ccc4nccnc4c3N(C)S(C)(=O)=O)n2)c(OC)cc1N1CCC(N(C)C)C1 (stereo not drawn) [Compound I-188]
–	–	–	–	–	–	≤ 50	50 to 500	500 to 2500	50 to 500	50 to 500	500 to 2500	COc1cc(N2CCC(N(C)C)CC2)c(C)cc1Nc1nc(Nc2ccc3nccnc3c2N(C)S(C)(=O)=O)c2sccc2n1 [II-1-13]
500 to 2500	50 to 500	50 to 500	500 to 2500	50 to 500	500 to 2500	–	–	–	–	–	–	CCN(c1c(Nc2nc(Nc3cc(C)c(N4CCC(N5CCN(C)CC5)CC4)nc3OC)ncc2Br)ccc2nccnc12)S(C)(=O)=O [Compound I-297]
500 to 2500	50 to 500	500 to 2500	500 to 2500	500 to 2500	500 to 2500	–	–	–	–	–	–	COc1cc(N2CCC(N3CCN(C)CC3)CC2)c(Cc2ccccc2)cc1Nc1ncc(Cl)c(Nc2ccc3nccnc3c2N(C)S(C)(=O)=O)n1 [Compound I-168]
≤ 50	≤ 50	50 to 500	≤ 50	≤ 50	50 to 500	–	–	–	–	–	–	CCc1cc(Nc2ncc(Br)c(Nc3ccc4nccnc4c3N(C)S(=O)(=O)C(C)C)n2)c(OC)cc1N1CCC(N2CCN(C)CC2)CC1 [Compound I-135]
≤ 50	≤ 50	≤ 50	≤ 50	≤ 50	≤ 50	–	–	–	–	–	–	CCc1cc(Nc2ncc(C(F)(F)F)c(Nc3ccc4nccnc4c3N(C)S(C)(=O)=O)n2)c(OC)cc1N1CCC(N(C)C)C1 (stereo not drawn) [Compound I-210]
–	–	–	–	–	–	≤ 50	50 to 500	50 to 500	50 to 500	50 to 500	50 to 500	CCc1cnc(Nc2ccc(N3CCC(N4CCN(C)CC4)CC3)cc2OC)nc1Nc1ccc2nccnc2c1N(C)S(C)(=O)=O [Compound I-316]
≤ 50	50 to 500	500 to 2500	50 to 500	50 to 500	500 to 2500	–	–	–	–	–	–	C=Cc1cc(Nc2ncc(Br)c(Nc3ccc4nccnc4c3N(C)S(=O)(=O)C(F)(F)F)n2)c(OC(F)(F)F)cc1N1CCC(N2CCN(C)CC2)CC1 [Compound I-258]
50 to 500	50 to 500	50 to 500	50 to 500	50 to 500	50 to 500	–	–	–	–	–	–	CCc1cc(Nc2ncc(Cl)c(Nc3ccc4nccnc4c3N(C)S(=O)(=O)C(F)(F)F)n2)c(OC)cc1N1CCN(C)CC1 [Compound I-267]
–	–	–	–	–	–	≤ 50	50 to 500	≤ 50	≤ 50	≤ 50	50 to 500	CCS(=O)(=O)N(C)c1c(Nc2nc(Nc3cc(N4CCC(O)CC4)ccc3OC)ncc2Cl)ccc2nccnc12 [Compound I-372]
≤ 50	≤ 50	50 to 500	50 to 500	50 to 500	50 to 500	–	–	–	–	–	–	CCc1cc(Nc2ncc(Br)c(Nc3ccc4nccnc4c3N(C3CC3)S(C)(=O)=O)n2)c(OC(F)(F)F)cc1N1CCC(N2CCN(C)CC2)CC1 [Compound I-156]
50 to 500	50 to 500	≤ 50	50 to 500	≤ 50	50 to 500	–	–	–	–	–	–	CN1CCN(Cc2cccc(Nc3ncc(Br)c(Nc4ccc5nccnc5c4N(C)S(C)(=O)=O)n3)c2)CC1 [Compound I-84]
≤ 50	50 to 500	50 to 500	50 to 500	50 to 500	50 to 500	–	–	–	–	–	–	CN1CCN(C2CCN(c3ccc(Nc4ncc(Cl)c(Nc5ccc6nccnc6c5N(C)S(C)(=O)=O)n4)c(OC(F)(F)F)c3)CC2)CC1 [Compound I-166]
≤ 50	≤ 50	50 to 500	≤ 50	≤ 50	50 to 500	–	–	–	–	–	–	COc1cc(N2CCC(N(C)C)C2)c(C)cc1Nc1ncc(Br)c(Nc2ccc3nccnc3c2N(C)S(=O)(=O)C2CC2)n1 (stereo not drawn) [Compound I-222]
≤ 50	≤ 50	≤ 50	≤ 50	≤ 50	50 to 500	–	–	–	–	–	–	CCc1cc(Nc2ncc(C(F)(F)F)c(Nc3ccc4nccnc4c3N(C)S(C)(=O)=O)n2)c(OC)nc1N1CCC(N2CCN(C)CC2)CC1 [Compound I-199]
